Experimental data: PubChem BioAssay AID248 (DTP/NCI, 2004)
Several values for one entry are separate records, joined by “and”; a condition that tells them apart may be missing. Equal values may be shown once. Toxic doses and inconclusive results are not listed.

Tested on: L1210 leukemia ip in BDF1 mice, survival T/C
Assay: NCI In Vivo Anticancer Drug Screen. Data for tumor model L1210 Leukemia (intraperitoneal) in B6D2F1 (BDF1) mice
Conditions: higher = longer survival
Outline: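 Transplanted-tumor mice were given test agent; controls received vehicle only. Survival readings from the two groups were divided (treated over control).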

Structure (SMILES): COc1ccc2[nH]c3c(C)c4ccncc4c(C)c3c2c1
- T/C (endpoint: mean survival time, dose: 2.5 mg/kg/injection, schedule: Q01DX009 (ip), vehicle: Klucel (hydroxypropylcellulose) (HPC)): 93 % of control
- T/C (endpoint: mean survival time, dose: 3.12 mg/kg/injection, schedule: Q01DX009 (ip), vehicle: citric acid): 113 % of control and 124 % of control
- T/C (endpoint: mean survival time, dose: 3.12 mg/kg/injection, schedule: Q01DX009 (ip), vehicle: clinical formulation): 109 % of control and 121 % of control
- T/C (endpoint: mean survival time, dose: 3.12 mg/kg/injection, schedule: Q04DX003 (ip), vehicle: citric acid): 106 % of control
- T/C (endpoint: mean survival time, dose: 3.12 mg/kg/injection, schedule: Q04DX003 (ip), vehicle: clinical formulation): 104 % of control
- T/C (endpoint: mean survival time, dose: 5.0 mg/kg/injection, schedule: Q01DX009 (ip), vehicle: Klucel (hydroxypropylcellulose) (HPC)): 106 % of control
- T/C (endpoint: mean survival time, dose: 6.0 mg/kg/injection, schedule: Q01DX Z (ip), vehicle: saline): 112 % of control
- T/C (endpoint: mean survival time, dose: 6.25 mg/kg/injection, schedule: Q01DX009 (ip), vehicle: citric acid): 122 % of control
- T/C (endpoint: mean survival time, dose: 6.25 mg/kg/injection, schedule: Q04DX003 (ip), vehicle: citric acid): 109 % of control and 112 % of control
- T/C (endpoint: mean survival time, dose: 6.25 mg/kg/injection, schedule: Q04DX003 (ip), vehicle: clinical formulation): 106 % of control and 108 % of control
- T/C (endpoint: mean survival time, dose: 9.37 mg/kg/injection, schedule: Q01DX001 (ip), vehicle: other): 102 % of control
- T/C (endpoint: mean survival time, dose: 9.37 mg/kg/injection, schedule: Q01DX001 (sc), vehicle: other): 98 % of control
- T/C (endpoint: mean survival time, dose: 9.37 mg/kg/injection, schedule: Q04DX003 (ip), vehicle: other): 103 % of control
- T/C (endpoint: mean survival time, dose: 9.38 mg/kg/injection, schedule: Q04DX003 (ip), vehicle: clinical formulation): 104 % of control
- T/C (endpoint: mean survival time, dose: 9.38 mg/kg/injection, schedule: Q04DX003 (ip), vehicle: lactic acid): 121 % of control
- T/C (endpoint: mean survival time, dose: 10.0 mg/kg/injection, schedule: Q01DX009 (ip), vehicle: Klucel (hydroxypropylcellulose) (HPC)): 109 % of control
- T/C (endpoint: mean survival time, dose: 12.0 mg/kg/injection, schedule: Q01DX001 (ip), vehicle: saline): 106 % of control
- T/C (endpoint: mean survival time, dose: 12.0 mg/kg/injection, schedule: Q01DX Z (ip), vehicle: saline): 109 % of control and 123 % of control
- T/C (endpoint: mean survival time, dose: 12.0 mg/kg/injection, schedule: Q01DX Z (oral), vehicle: saline): 116 % of control
- T/C (endpoint: mean survival time, dose: 12.5 mg/kg/injection, schedule: Q01DX009 (ip), vehicle: citric acid): 150 % of control
- T/C (endpoint: mean survival time, dose: 12.5 mg/kg/injection, schedule: Q04DX003 (ip), vehicle: citric acid): 116 % of control
- T/C (endpoint: mean survival time, dose: 12.5 mg/kg/injection, schedule: Q04DX003 (ip), vehicle: clinical formulation): 117 % of control and 120 % of control
- T/C (endpoint: mean survival time, dose: 18.75 mg/kg/injection, schedule: Q01DX001 (ip), vehicle: other): 108 % of control and 109 % of control
- T/C (endpoint: mean survival time, dose: 18.75 mg/kg/injection, schedule: Q01DX001 (sc), vehicle: other): 104 % of control
- T/C (endpoint: mean survival time, dose: 18.75 mg/kg/injection, schedule: Q04DX003 (ip), vehicle: other): 118 % of control
- T/C (endpoint: mean survival time, dose: 20.0 mg/kg/injection, schedule: Q01DX009 (ip), vehicle: Klucel (hydroxypropylcellulose) (HPC)): 119 % of control
- T/C (endpoint: mean survival time, dose: 25.0 mg/kg/injection, schedule: Q01DX001 (ip), vehicle: saline): 104 % of control
- T/C (endpoint: mean survival time, dose: 25.0 mg/kg/injection, schedule: Q01DX009 (ip), vehicle: citric acid): 93 % of control
- T/C (endpoint: mean survival time, dose: 25.0 mg/kg/injection, schedule: Q01DX009 (ip), vehicle: clinical formulation): 101 % of control
- T/C (endpoint: mean survival time, dose: 37.5 mg/kg/injection, schedule: Q01DX001 (ip), vehicle: other): 114 % of control and 120 % of control
- T/C (endpoint: mean survival time, dose: 37.5 mg/kg/injection, schedule: Q01DX001 (ip), vehicle: saline): 104 % of control
- T/C (endpoint: mean survival time, dose: 37.5 mg/kg/injection, schedule: Q01DX001 (oral), vehicle: other): 118 % of control
- T/C (endpoint: mean survival time, dose: 37.5 mg/kg/injection, schedule: Q01DX001 (sc), vehicle: other): 113 % of control
- T/C (endpoint: mean survival time, dose: 37.5 mg/kg/injection, schedule: Q01DX001 (sc), vehicle: saline): 104 % of control
- T/C (endpoint: mean survival time, dose: 37.5 mg/kg/injection, schedule: Q04DX003 (oral), vehicle: other): 113 % of control
- T/C (endpoint: mean survival time, dose: 50.0 mg/kg/injection, schedule: Q01DX001 (ip), vehicle: other): 105 % of control
- T/C (endpoint: mean survival time, dose: 50.0 mg/kg/injection, schedule: Q01DX001 (ip), vehicle: saline): 98 % of control
- T/C (endpoint: mean survival time, dose: 50.0 mg/kg/injection, schedule: Q04DX003 (ip), vehicle: clinical formulation): 123 % of control
- T/C (endpoint: mean survival time, dose: 75.0 mg/kg/injection, schedule: Q01DX001 (ip), vehicle: saline): 111 % of control and 113 % of control and 115 % of control
- T/C (endpoint: mean survival time, dose: 75.0 mg/kg/injection, schedule: Q01DX001 (oral), vehicle: other): 124 % of control
- T/C (endpoint: mean survival time, dose: 75.0 mg/kg/injection, schedule: Q01DX001 (oral), vehicle: saline): 113 % of control
- T/C (endpoint: mean survival time, dose: 75.0 mg/kg/injection, schedule: Q01DX001 (sc), vehicle: other): 112 % of control
- T/C (endpoint: mean survival time, dose: 75.0 mg/kg/injection, schedule: Q01DX001 (sc), vehicle: saline): 100 % of control
- T/C (endpoint: mean survival time, dose: 100.0 mg/kg/injection, schedule: Q01DX Z (ip), vehicle: carboxymethylcellulose (CMC)): 96 % of control
- T/C (endpoint: mean survival time, dose: 100.0 mg/kg/injection, schedule: Q01DX Z (ip), vehicle: saline): 109 % of control
- T/C (endpoint: mean survival time, dose: 100.0 mg/kg/injection, schedule: Q04DX003 (ip), vehicle: citric acid): 110 % of control
- T/C (endpoint: mean survival time, dose: 100.0 mg/kg/injection, schedule: Q04DX003 (ip), vehicle: clinical formulation): 93 % of control and 103 % of control
- T/C (endpoint: mean survival time, dose: 115.0 mg/kg/injection, schedule: Q01DX001 (ip), vehicle: saline): 113 % of control
- T/C (endpoint: mean survival time, dose: 115.0 mg/kg/injection, schedule: Q01DX Z (oral), vehicle: saline): 95 % of control
- T/C (endpoint: mean survival time, dose: 150.0 mg/kg/injection, schedule: Q01DX001 (ip), vehicle: saline): 118 % of control
- T/C (endpoint: mean survival time, dose: 150.0 mg/kg/injection, schedule: Q01DX001 (sc), vehicle: other): 120 % of control
- T/C (endpoint: mean survival time, dose: 150.0 mg/kg/injection, schedule: Q01DX001 (sc), vehicle: saline): 107 % of control
- T/C (endpoint: mean survival time, dose: 170.0 mg/kg/injection, schedule: Q01DX001 (ip), vehicle: saline): 108 % of control
- T/C (endpoint: mean survival time, dose: 170.0 mg/kg/injection, schedule: Q01DX Z (ip), vehicle: saline): 104 % of control
- T/C (endpoint: mean survival time, dose: 225.0 mg/kg/injection, schedule: Q01DX001 (ip), vehicle: saline): 115 % of control
- T/C (endpoint: mean survival time, dose: 255.0 mg/kg/injection, schedule: Q01DX Z (ip), vehicle: saline): 96 % of control
- T/C (endpoint: mean survival time, dose: 255.0 mg/kg/injection, schedule: Q01DX Z (oral), vehicle: saline): 106 % of control
- T/C (endpoint: mean survival time, dose: 300.0 mg/kg/injection, schedule: Q01DX001 (ip), vehicle: saline): 122 % of control
- T/C (endpoint: mean survival time, dose: 300.0 mg/kg/injection, schedule: Q01DX001 (sc), vehicle: saline): 103 % of control
- T/C (endpoint: mean survival time, dose: 600.0 mg/kg/injection, schedule: Q01DX001 (oral), vehicle: other): 92 % of control
- T/C (endpoint: mean survival time, dose: 600.0 mg/kg/injection, schedule: Q01DX001 (sc), vehicle: saline): 111 % of control
- T/C (endpoint: mean survival time, dose: 1200.0 mg/kg/injection, schedule: Q01DX001 (oral), vehicle: saline): 104 % of control
- T/C (endpoint: median survival time, dose: 2.0 mg/kg/injection, schedule: Q03HX008 (oral), vehicle: other): 100 % of control
- T/C (endpoint: median survival time, dose: 2.0 mg/kg/injection, schedule: Q03HX008 (sc), vehicle: water): 100 % of control
- T/C (endpoint: median survival time, dose: 4.0 mg/kg/injection, schedule: Q01DX009 (ip), vehicle: other): 116 % of control
- T/C (endpoint: median survival time, dose: 4.0 mg/kg/injection, schedule: Q01DX009 (oral), vehicle: other): 111 % of control
- T/C (endpoint: median survival time, dose: 4.0 mg/kg/injection, schedule: Q01DX009 (sc), vehicle: water): 100 % of control
- T/C (endpoint: median survival time, dose: 4.0 mg/kg/injection, schedule: Q03HX008 (oral), vehicle: other): 111 % of control
- T/C (endpoint: median survival time, dose: 4.0 mg/kg/injection, schedule: Q03HX008 (sc), vehicle: water): 111 % of control
- T/C (endpoint: median survival time, dose: 8.0 mg/kg/injection, schedule: Q01DX009 (oral), vehicle: other): 111 % of control
- T/C (endpoint: median survival time, dose: 8.0 mg/kg/injection, schedule: Q01DX009 (sc), vehicle: water): 116 % of control
- T/C (endpoint: median survival time, dose: 8.0 mg/kg/injection, schedule: Q03HX008 (oral), vehicle: other): 94 % of control
- T/C (endpoint: median survival time, dose: 8.0 mg/kg/injection, schedule: Q03HX008 (sc), vehicle: water): 122 % of control
- T/C (endpoint: median survival time, dose: 16.0 mg/kg/injection, schedule: Q01DX001 (oral), vehicle: other): 100 % of control
- T/C (endpoint: median survival time, dose: 16.0 mg/kg/injection, schedule: Q01DX001 (sc), vehicle: water): 111 % of control
- T/C (endpoint: median survival time, dose: 16.0 mg/kg/injection, schedule: Q01DX009 (ip), vehicle: water): 111 % of control
- T/C (endpoint: median survival time, dose: 16.0 mg/kg/injection, schedule: Q01DX009 (oral), vehicle: other): 122 % of control
- T/C (endpoint: median survival time, dose: 16.0 mg/kg/injection, schedule: Q03HX008 (oral), vehicle: other): 116 % of control
- T/C (endpoint: median survival time, dose: 32.0 mg/kg/injection, schedule: Q01DX001 (oral), vehicle: other): 111 % of control
- T/C (endpoint: median survival time, dose: 32.0 mg/kg/injection, schedule: Q01DX009 (ip), vehicle: other): 100 % of control
- T/C (endpoint: median survival time, dose: 32.0 mg/kg/injection, schedule: Q01DX009 (ip), vehicle: water): 100 % of control
- T/C (endpoint: median survival time, dose: 32.0 mg/kg/injection, schedule: Q01DX009 (oral), vehicle: other): 105 % of control
- T/C (endpoint: median survival time, dose: 32.0 mg/kg/injection, schedule: Q03HX008 (sc), vehicle: water): 150 % of control
- T/C (endpoint: median survival time, dose: 64.0 mg/kg/injection, schedule: Q01DX001 (oral), vehicle: other): 111 % of control
- T/C (endpoint: median survival time, dose: 64.0 mg/kg/injection, schedule: Q01DX001 (sc), vehicle: water): 111 % of control
- T/C (endpoint: median survival time, dose: 64.0 mg/kg/injection, schedule: Q01DX009 (sc), vehicle: water): 116 % of control
- T/C (endpoint: median survival time, dose: 128.0 mg/kg/injection, schedule: Q01DX001 (oral), vehicle: other): 122 % of control
- T/C (endpoint: median survival time, dose: 128.0 mg/kg/injection, schedule: Q01DX009 (oral), vehicle: other): 111 % of control
- T/C (endpoint: median survival time, dose: 256.0 mg/kg/injection, schedule: Q01DX001 (sc), vehicle: water): 122 % of control
